System: BRCA1-deficient human breast cancer cell line, MX-1
Test: Tumor growth delay in MX-1 human breast cancer model in mice
Type: in vivo
Design: Median TTE: unit not given beside the values
Procedure: Cancerous cells from the BRCA1-deficient human breast cancer cell line, MX-1, were injected subcutaneously in female mice. […]
Animal weight, clinical observations and tumor volume were monitored twice/week until the endpoint (2000 mm^3 of tumor volume or Day 88) was met.
Efficacy was measured by tumor growth delay and regression response rate.

[1] = rucaparib 30 mg/kg po q.d. × 21
[2] = rucaparib 150 mg/kg po q.d. × 21

With CNCc1ccc(-c2[nH]c3cc(F)cc4c3c2CCNC4=O)cc1 [rucaparib] the “Median TTE” value [1] was 39, the “Regressions CR” value [1] was 0% and the “Regressions PR” value [1] was 0%. The “Regressions TFS” value [1] was 0%, the “Statistical Results For Groups Tested” value [1] was “Significant against vehicle (p ≤ 0.05)” and the T-C [1] was 14 days. For the same compound, the TGD [1] was 56%, the “Median TTE” value [2] was 43 and the “Regressions CR” value [2] was 0%. The “Regressions PR” value [2] was 0%, the “Regressions TFS” value [2] was 0% and the “Statistical Results For Groups Tested” value [2] was “Significant against vehicle (p ≤ 0.01)”. The T-C [2] was 18 days, the TGD [2] was 73% and the “efficacy (mean tumor volumes, FIG. 1)” value (single agent, at both the 30 mg/kg and 150 mg/kg dosages) was “only marginally effective”.
“pentaerythritol-based multi-arm polymer conjugate of irinotecan [PBMAPCI]” was tested, and the “Median TTE” value (PBMAPCI 10 mg/kg iv qwk × 4) was 57, the “Regressions CR” value (PBMAPCI 10 mg/kg iv qwk × 4) was 10% and the “Regressions PR” value (PBMAPCI 10 mg/kg iv qwk × 4) was 0%. The “Regressions TFS” value (PBMAPCI 10 mg/kg iv qwk × 4) was 10%, the “Statistical Results For Groups Tested” value (PBMAPCI 10 mg/kg iv qwk × 4) was “Significant against vehicle (p ≤ 0.001)” and the T-C (PBMAPCI 10 mg/kg iv qwk × 4) was 32 days. For the same compound, the TGD (PBMAPCI 10 mg/kg iv qwk × 4) was 129%, the “Median TTE” value (PBMAPCI 50 mg/kg iv qwk × 4) was 88 and the “Regressions CR” value (PBMAPCI 50 mg/kg iv qwk × 4) was 100%. The “Regressions PR” value (PBMAPCI 50 mg/kg iv qwk × 4) was 0%, the “Regressions TFS” value (PBMAPCI 50 mg/kg iv qwk × 4) was 100% and the “Statistical Results For Groups Tested” value (PBMAPCI 50 mg/kg iv qwk × 4) was “Significant against vehicle (p ≤ 0.001)”. For the same compound, the T-C (PBMAPCI 50 mg/kg iv qwk × 4) was 63 days and the TGD (PBMAPCI 50 mg/kg iv qwk × 4) was 252%.

Reference: patent publication US10653689B2, “Combination-based treatment method” (priority 2014, dated 2020)
